Measurements reported in the supplement of paper PMC8671470.
± gives the standard deviation of the averaged measurements.

How the values were obtained:
Conditions in all cases: 72 h
KU-812 [1] = tested on: KU-812
Procedure, shortened: (§1)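 For the IC50, dose–response curves were fitted with a log-logistic model. The data came from fifteen myeloid leukaemia cell lines grown in RPMI 1640 at densities in the linear growth range and incubated in 384-well plates for 72 h at 37 °C under 5% CO2. Doses were five tenfold steps from 1 to 10,000 nM in duplicate, and luminescent ATP viability was normalised to vehicle and to a positive control at 10 µM before four-parameter fitting.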

NOMO-1 [2] = tested on: NOMO-1
Procedure, shortened: as §1

MV4-11 [3] = tested on: MV4-11
Procedure, shortened: as §1

K-562 [4] = tested on: K-562
Procedure, shortened: as §1

Mono-Mac-6 [5] = tested on: Mono-Mac-6
Procedure, shortened: as §1

HL-60 [6] = test: cell viability (% survival relative to DMSO control); higher = less cytotoxic
Procedure, shortened: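 A rescreen of the full library used HL-60 cells in RPMI 1640 with 10% FBS on 384-well plates, run in duplicate at five tenfold concentrations (1–10,000 nM). Each screen included DMSO or 100 nM of one of three metabolic inhibitors and ran 72 h at 37 °C, 5% CO2. CellTiter-Glo viability was scaled between DMSO and 10 μM proteasome-inhibitor wells. Any area under the curve comes from four-parameter log-logistic fits with drc and PharmacoGx.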

KU-812 [7] = test: cell viability (% survival relative to DMSO control, bortezomib = 0%); higher = less cytotoxic
Procedure, shortened: (§2)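 Fifteen myeloid leukaemia cell lines (10 AML, 5 CML) were seeded at a density titrated to the linear growth range into 384-well plates pre-printed with compounds at 1, 10, 100, 1000 or 10000 nM in duplicate. Plates were incubated for 72 h at 37 °C with 5% CO2. Viability was then read by CellTiter-Glo luminescence. Each value is percent survival averaged over the duplicates, with vehicle set to 100% and a 10 µM positive control to 0%.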

ML-2 = test: as above
Procedure, shortened: as §2

NOMO-1 [8] = test: as above
Procedure, shortened: as §2

KG-1 = test: as above
Procedure, shortened: as §2

MOLM-13 = test: as above
Procedure, shortened: as §2

HL-60 [9] = test: as above
Procedure, shortened: as §2

MV4-11 [10] = test: as above
Procedure, shortened: as §2

K-562 [11] = test: as above
Procedure, shortened: as §2

KCL-22 = test: as above
Procedure, shortened: as §2

BV-173 = test: as above
Procedure, shortened: as §2

HEL = test: as above
Procedure, shortened: as §2

THP-1 = test: as above
Procedure, shortened: as §2

Mono-Mac-6 [12] = test: as above
Procedure, shortened: as §2

LAMA-84 = test: as above
Procedure, shortened: as §2

SHI-1 = test: as above
Procedure, shortened: as §2

Cc1cccc(Nc2cc(Cl)nc(SCC(=O)O)n2)c1C [Pirinixic acid]
IC50 (cell viability) (KU-812 [1]): > 10 µM
IC50 (cell viability) (NOMO-1 [2]): > 10 µM
IC50 (cell viability) (MV4-11 [3]): > 10 µM
IC50 (cell viability) (K-562 [4]): > 10 µM
IC50 (cell viability) (Mono-Mac-6 [5]): > 10 µM
cell viability (HL-60 [6]; 0.001 µM, co-treatment: AZD3965 100 nM): 98.81 ± 0.56%
cell viability (HL-60 [6]; 0.001 µM, co-treatment: DMSO vehicle): 97.46 ± 0.45%
cell viability (HL-60 [6]; 0.001 µM, co-treatment: GSK2194069 100 nM): 70.6 ± 36%
cell viability (HL-60 [6]; 0.001 µM, co-treatment: pictilisib 100 nM): 96.5 ± 14%
cell viability (HL-60 [6]; 0.01 µM, co-treatment: AZD3965 100 nM): 99 ± 2%
cell viability (HL-60 [6]; 0.01 µM, co-treatment: DMSO vehicle): 94.5 ± 4.6%
cell viability (HL-60 [6]; 0.01 µM, co-treatment: GSK2194069 100 nM): 89.6 ± 7.2%
cell viability (HL-60 [6]; 0.01 µM, co-treatment: pictilisib 100 nM): 80.8 ± 28%
cell viability (HL-60 [6]; 0.1 µM, co-treatment: AZD3965 100 nM): 96.2 ± 2.9%
cell viability (HL-60 [6]; 0.1 µM, co-treatment: DMSO vehicle): 96.3 ± 2.2%
cell viability (HL-60 [6]; 0.1 µM, co-treatment: GSK2194069 100 nM): 94.6 ± 6.5%
cell viability (HL-60 [6]; 0.1 µM, co-treatment: pictilisib 100 nM): 91.1 ± 6%
cell viability (HL-60 [6]; 1 µM, co-treatment: AZD3965 100 nM): 99.2 ± 2.7%
cell viability (HL-60 [6]; 1 µM, co-treatment: DMSO vehicle): 100.4 ± 0.83%
cell viability (HL-60 [6]; 1 µM, co-treatment: GSK2194069 100 nM): 99.1 ± 5.2%
cell viability (HL-60 [6]; 1 µM, co-treatment: pictilisib 100 nM): 102 ± 3.8%
cell viability (HL-60 [6]; 10 µM, co-treatment: AZD3965 100 nM): 98.02 ± 0.94%
cell viability (HL-60 [6]; 10 µM, co-treatment: DMSO vehicle): 96.4 ± 0.97%
cell viability (HL-60 [6]; 10 µM, co-treatment: GSK2194069 100 nM): 77.3 ± 27%
cell viability (HL-60 [6]; 10 µM, co-treatment: pictilisib 100 nM): 96.7 ± 5.6%
cell viability (KU-812 [7]; 1 nM): 97.2%
cell viability (KU-812 [7]; 10 nM): 97.6%
cell viability (KU-812 [7]; 100 nM): 102%
cell viability (KU-812 [7]; 1000 nM): 96.4%
cell viability (KU-812 [7]; 10000 nM): 97.3%
cell viability (ML-2; 1 nM): 103%
cell viability (ML-2; 10 nM): 103%
cell viability (ML-2; 100 nM): 105%
cell viability (ML-2; 1000 nM): 105%
cell viability (ML-2; 10000 nM): 102%
cell viability (NOMO-1 [8]; 1 nM): 106%
cell viability (NOMO-1 [8]; 10 nM): 102%
cell viability (NOMO-1 [8]; 100 nM): 102%
cell viability (NOMO-1 [8]; 1000 nM): 90.5%
cell viability (NOMO-1 [8]; 10000 nM): 96.8%
cell viability (KG-1; 1 nM): 99%
cell viability (KG-1; 10 nM): 93.1%
cell viability (KG-1; 100 nM): 101%
cell viability (KG-1; 1000 nM): 98.8%
cell viability (KG-1; 10000 nM): 107%
cell viability (MOLM-13; 1 nM): 106%
cell viability (MOLM-13; 10 nM): 102%
cell viability (MOLM-13; 100 nM): 87.1%
cell viability (MOLM-13; 1000 nM): 111%
cell viability (MOLM-13; 10000 nM): 84.6%
cell viability (HL-60 [9]; 1 nM): 97.2%
cell viability (HL-60 [9]; 10 nM): 101%
cell viability (HL-60 [9]; 100 nM): 116%
cell viability (HL-60 [9]; 1000 nM): 93.8%
cell viability (HL-60 [9]; 10000 nM): 98.2%
cell viability (MV4-11 [10]; 1 nM): 94.5%
cell viability (MV4-11 [10]; 10 nM): 90.7%
cell viability (MV4-11 [10]; 100 nM): 102%
cell viability (MV4-11 [10]; 1000 nM): 99.3%
cell viability (MV4-11 [10]; 10000 nM): 99.8%
cell viability (K-562 [11]; 1 nM): 99.8%
cell viability (K-562 [11]; 10 nM): 92.3%
cell viability (K-562 [11]; 100 nM): 102%
cell viability (K-562 [11]; 1000 nM): 94.5%
cell viability (K-562 [11]; 10000 nM): 90.7%
cell viability (KCL-22; 1 nM): 86.5%
cell viability (KCL-22; 10 nM): 92.5%
cell viability (KCL-22; 100 nM): 100%
cell viability (KCL-22; 1000 nM): 106%
cell viability (KCL-22; 10000 nM): 101%
cell viability (BV-173; 1 nM): 106%
cell viability (BV-173; 10 nM): 90.6%
cell viability (BV-173; 100 nM): 104%
cell viability (BV-173; 1000 nM): 92.1%
cell viability (BV-173; 10000 nM): 93.5%
cell viability (HEL; 1 nM): 84%
cell viability (HEL; 10 nM): 100%
cell viability (HEL; 100 nM): 109%
cell viability (HEL; 1000 nM): 104%
cell viability (HEL; 10000 nM): 101%
cell viability (THP-1; 1 nM): 105%
cell viability (THP-1; 10 nM): 97.1%
cell viability (THP-1; 100 nM): 101%
cell viability (THP-1; 1000 nM): 99.5%
cell viability (THP-1; 10000 nM): 102%
cell viability (Mono-Mac-6 [12]; 1 nM): 105%
cell viability (Mono-Mac-6 [12]; 10 nM): 106%
cell viability (Mono-Mac-6 [12]; 100 nM): 98.4%
cell viability (Mono-Mac-6 [12]; 1000 nM): 99.2%
cell viability (Mono-Mac-6 [12]; 10000 nM): 91.4%
cell viability (LAMA-84; 1 nM): 100%
cell viability (LAMA-84; 10 nM): 97.7%
cell viability (LAMA-84; 100 nM): 99%
cell viability (LAMA-84; 1000 nM): 94.5%
cell viability (LAMA-84; 10000 nM): 95%
cell viability (SHI-1; 1 nM): 98.5%
cell viability (SHI-1; 10 nM): 97%
cell viability (SHI-1; 100 nM): 91.8%
cell viability (SHI-1; 1000 nM): 94.4%
cell viability (SHI-1; 10000 nM): 82.8%
